Data taken from patent publication US12653192B2, “Pesticidal compositions” (SYNGENTA CROP PROTECTION AG, priority 2021, dated 2026).
Read-outs that look alike come from different tables or passages of the source.

Format: physicochemical
Experimental: The percentage amount of spiropidion remaining at each time interval during the high temperature storage testing was compared to an identical sample stored at −18° C. (100%=amount of spiropidion in the −18° C. sample at respective time interval).

chemical degradation of the active ingredient spiropidion: only minimal chemical degradation | % Spiropidion remaining (1 month): 99% | % Spiropidion remaining (12 months): 98%
Structure (SMILES): CCOC(=O)OC1=C(c2c(C)cc(Cl)cc2C)C(=O)N(C)C12CCN(OC)CC2 [Spiropidion, [3-(4-chloro-2,6-dimethyl-phenyl)-8-methoxy-1-methyl-2-oxo-1,8-diazaspiro[4.5]dec-3-en-4-yl]ethyl carbonate]
